The structures appear in SMILES notation.

Holding throughout (assay type): cell-based
In assay [1] the test system is Candida albicans (ATCC#10231). Description: Preservative effectiveness test, single challenge. The text has this:
(§1) To test for preservative effectiveness, aliquots of vaccine were inoculated with the following organisms:
(§2) Thirty milliliters (ml) of each vaccine formulation with and without Thimerosal or 2-PE at indicated concentrations or saline containing Thimerosal at 0.02% were inoculated in triplicates with a suspension of each test organism to achieve an inoculum density of approximately 10^5 to 10^6 CFU/ml at time 0 (CFU=colony forming units). […] Samples were mixed to ensure even distribution of challenged organisms. Another 30 ml of vaccine in triplicate (with and without preservative) were used as a negative control and spiked with the culture media alone to evaluate the inherent contamination that might be present in the sample or media. Each of the three series of vaccines, and positive and negative controls, was then separately incubated at 20 to 25° C. Aliquots (1 ml) of the challenged samples and controls (or their appropriate serial ten fold dilutions) were enumerated by plate count in duplicates at time 0 and at intervals of 6 hours, 24 hours, 7 days, 14 days and 28 days post-inoculation.
(§3) USP 29 NF 24 Supplement 2 (USP) requires that, after an inoculation of bacterial micro-organism(s), there is at least 1.0 log reduction from the initial calculated count (i.e., at time of inoculation) at 7 days, at least 3.0 log reduction at 14 days from the previous value measured and no increase at 28 days from the previous measured value. For yeast and fungi, the USP requirement is for there to be no increase from the time of inoculation to 7, 14 and 28 days.
(§4) EP requirements are more stringent. EP 5th Edition 5.6 (5.1.3) requirements for parenteral and ophthalmic preparations has two components: Category A and Category B. Category A (EP-A) requires, for bacteria, at least 2.0 log reduction from the initial calculated count at 6 hours after inoculation, at least 3.0 log reduction at 24 hours from the previous measured value, and no recovery at 28 days. Category B (EP-B) requires, for bacteria, at least 1.0 log reduction at 24 hours from the initial calculated count, at least 3.0 log reduction at 7 days from the previous value measured and not more than 0.5 log increase at 28 days from the previous value measured (i.e., no increase). For yeast and fungi, Category A requires at least 2.0 log reduction at 7 days and no increase from the previous value measured at 28 days, and Category B requires at least 1.0 log reduction at 14 days and no increase from the previous value measured at 28 days.
(§5) Plates containing <300 CFU for bacteria or <100 CFU for yeast or mold were used during enumeration. For single challenge studies, arithmetic average count of all surviving micro-organisms in triplicate and on duplicate plates (6 values per time point) plus their diluted samples were measured and normalized as CFU/ml. The results are expressed as mean log10 CFU/ml reduction (compared to time 0). In this case, the count of surviving micro-organisms is evaluated at time 0 as the baseline and compared to incubation time of 6 hours, 24 hours, 7 days, 14 days and 28 days.

For assay [2], the system named is Staphylococcus aureus (ATCC #6538). The assay can be described thus: Preservative effectiveness test, single challenge.
Source text: as §1, §2, §3, §4, §5

Assay [3] relates to P. aeruginosa, S. aureus, E. coli and B. subtilis. The assay can be described thus: Preservative effectiveness test, multi-challenge method, all challenge organisms. The procedure: (§6) To represent the worst reasonable case of contamination that may occur in practice during the repeated use of a multi-dose presentation, WHO requires safety testing with deliberate exposure to multiple contamination events using bacterial strains, Pseudomonas Aeruginosa (“PA”), Staphylococcus Aureus (“SA”), Escherichia coli (“EC”) and Bacillus subtilis (“BA”). Formulations are spiked with 5×10^3 CFU/ml of each organism at times 0, 6 hours, 24 hours, 7 days and 14 days after initial challenge and stored either at 2-8° C. or at 22-24° C. to mimic the potential storage conditions in practice.
(§7) To assess the appropriateness of WHO multi-dose Open Vial Policy of vaccines in multiple immunization sessions for up to maximum of four weeks, experimental design provided by WHO was implemented. In this study, the effectiveness of Thimerosal was evaluated at the concentration that is present in the majority of U.S. licensed vaccines (0.01%), as well as at a higher concentration of 0.02%. To represent the worst reasonable case of contamination that may occur in practice during the repeated use of a multi-dose presentation, and to test WHO requirements, Prev(e)nar 13 vaccine formulations with 0.01 or 0.02% Thimerosal or with 5.0 mg/dose of 2-PE were deliberately exposed to multiple contamination events using WHO recommended bacterial strains, P. aeruginosa, S. aureus, E. coli and B. subtilis. Formulations were spiked with 5×10^3 CFU/ml of each organism at times 0, 6 hours, 24 hours, 7 days and 14 days after initial challenge and stored either at 2-8° C. or at 22-24° C. to mimic the potential storage conditions in practice. Saline formulation containing 0.02% Thimerosal was also used as a control to evaluate the potential impact of Prev(e)nar 13 on the antimicrobial efficacy of Thimerosal in the formulation.

The next assay relates to S. aureus. Description: Multi-challenge method, S. aureus decay (non-linear regression analysis). The procedure:
as §6, §7
As shown in the non-linear regression analysis of decay in the viability of S. aureus is summarized in FIG. 12, the rate of decay of S. aureus was substantially slower ([…], with 50% decay in 30.28 days) when formulation was stored at 2-8° C. compared to that stored at 22-24° C. (−1.39 log10 decay per day, with 50% decay in 6.2 days) (FIG. 12).

The mark [4] stands for this setting: Prev(e)nar 13 formulation, single challenge, 20 to 25° C.
[5] abbreviates: 0.01% Thimerosal in Prev(e)nar 13, single challenge.
The mark [6] stands for this setting: 0.02% Thimerosal in saline (no Prev(e)nar 13) versus vaccine formulation, single challenge.
Setting [7] is: 0.02% Thimerosal in Prev(e)nar 13, 22-24° C. storage.
[8] abbreviates: 0.02% Thimerosal in saline control formulation without vaccine.
Where [9] appears, read: 0.01% Thimerosal in Prev(e)nar 13, stored at 2-8° C.
Setting [10] is: 0.01% Thimerosal in Prev(e)nar 13, stored at 22-24° C.

As to `OCCOc1ccccc1` [2-PE, 2-phenoxyethanol], in assay [1] (setting [4]), the “EP (EP-B) vaccine safety requirements, C. albicans” value is on record as “Fails” and the “USP vaccine safety requirements, C. albicans” value is on record as “Meets”. Moreover, the “time to reduction of S. aureus to baseline after inoculation” value in assay [2] (5.0 mg/dose 2-PE in Prev(e)nar 13, single challenge) was 24 h. In assay [2] (setting [4]), the “EP (EP-B) vaccine safety requirements, S aureus” value is reported as “Fails” and the “USP vaccine safety requirements, S aureus” value is “Meets”. Further, the “EP-B criteria under multiple challenge” value in assay [3] (5 mg/dose 2-PE in Prev(e)nar 13) is “met”. For the same molecule, the “preservative effectiveness compared with 0.01% Thimerosal” value in assay [3] (5 mg/dose 2-PE, multi-challenge method, regardless of storage temperature, all organisms tested) was “superior”. Moreover, in assay [3] (2-PE at 3.5 to 5 mg/dose), the “rate of antimicrobial effectiveness compared to Thimerosal” value is given as “much higher”. In addition, the “inactivation of S. aureus viability compared with Thimerosal” value in the assay on S. aureus (5 mg/dose of 2-PE in Prev(e)nar 13, single or multiple challenge, either storage temperature) was “stronger”. In the assay on S. aureus (vaccine formulations with 2-PE, non-linear regression analysis), the “rate of S. aureus decay (50% decay and average slope) compared with Thimerosal” value was “faster”.

As to `C[CH2][Hg][S]c1ccccc1C(=O)[O-].[Na+]` [Thimerosal], the “inhibition of C. albicans relative to P. aeruginosa and A. niger” value in assay [1] (setting [5]) is “weaker”. In addition, the “growth inhibitory effectiveness against C. albicans” value in assay [1] (setting [6]) is on record as “slightly improved”. Moreover, the “reduction of contamination levels, C. albicans” value in assay [1] (0.02% Thimerosal versus 0.01% in Prev(e)nar 13, single challenge) is “more pronounced”. Also, the “inhibition of S. aureus relative to P. aeruginosa and A. niger” value in assay [2] (setting [5]) is “weaker”. Besides, in assay [2] (setting [6]), the “growth inhibitory effectiveness against S. aureus” value is reported as “slightly improved”. For the same molecule, in assay [2] (Thimerosal in Prev(e)nar 13, single challenge), the “decline of S. aureus” value is on record as “slow decline”. In assay [3] (0.01% Thimerosal in Prev(e)nar 13, multiple challenges), the “antibacterial effectiveness by organism” value is recorded as “highest on B. subtilis followed by P. aeruginosa”. In assay [3] (setting [7]), the “EP requirements EP-A applied to multi-challenge studies” value is on record as “did not meet” and the “EP requirements EP-B applied to multi-challenge studies” value was “did not meet”. Besides, in assay [3] (setting [8]), the “acceptance criteria of EP-A when multiply challenged” value is “did not meet” and the “acceptance criteria of EP-B when multiply challenged” value is listed as “did not meet”. The “preservative effectiveness, concentration dependence” value in assay [3] (Thimerosal 0.02% versus 0.01%, multiple challenges) is listed as “more effective”. In addition, the rate of inactivation result in assay [3] (Thimerosal in Prev(e)nar 13, particularly against S. aureus and E. coli) was “slow”. In addition, the “EP-B criteria under multiple challenge” value in assay [3] (Thimerosal, any version tested) was “no version of Thimerosal was able to do so”. Moreover, the “preservative effectiveness, temperature dependence” value in assay [3] (Thimerosal, storage at 22-24° C. versus 2-8° C., multiple challenges) is given as “more effective”. The “reduction of S. aureus” value in the assay on S. aureus (0.01% Thimerosal in Prev(e)nar 13, multiple challenges, particularly at 2-8° C.) is “slow”. Moreover, in the assay on S. aureus (setting [9]), the “rate of decay of S. aureus” value is −5.98 log10 decay per day and the “time to 50% decay of S. aureus” value worked out at 30.28 days. Further, in the assay on S. aureus (setting [10]), the “rate of decay of S. aureus” value is −1.39 log10 decay per day and the “time to 50% decay of S. aureus” value is 6.2 days. Also, the “rate of decay of S. aureus in saline formulation versus vaccine formulation” value in the assay with S. aureus (0.02% Thimerosal, multiple challenges) is listed as “more pronounced”.

For the origin of these results see US9095567B2, “Vaccine formulations” (priority 2010, dated 2015).
